Data on 1 molecule can be found in patent publication US9518004B2, “Reduced coenzyme Q10 derivative and method for production thereof” (KANEKA CORPORATION, priority 2012, dated 2016).

A short description of the data set: Oral absorbability in rats: overall coenzyme Q10 concentration in plasma by HPLC after oral administration (AUC). Also on record: species or system Spregue-Dawley rats. Conditions: rat, in vivo, 57.8 umol/kg. How it is done: (§1) To seven-weeks old male Spregue-Dawley rats (obtained from Japan SLC, Inc.) were orally administered the derivatives of reduced coenzyme Q10 obtained in Examples 3, 4 and 5 and the starting reduced coenzyme Q10 as control each in 57.8 μmol/kg (50 mg/kg in terms of reduced coenzyme Q10). Blood was extracted from each rat after 1, 2, 4, 8 and 24 hours after administration of each sample. Each extracted blood was centrifuged, so that plasma was obtained. Then, oxidation treatment of reduced coenzyme Q10 in the plasma and extraction treatment of oxidized coenzyme Q10 were performed, and then the overall coenzyme Q10 concentration in the plasma was measured as oxidized coenzyme Q10 by using HPLC.
as §1, with “derivative” for “derivatives”, “Referential Example 1” for “Examples 3, 4 and 5”

For `COc1c(OC(C)=O)c(C)c(CC=C(C)CCC=C(C)CCC=C(C)CCC=C(C)CCC=C(C)CCC=C(C)CCC=C(C)CCC=C(C)CCC=C(C)CCC=C(C)C)c(OC(C)=O)c1OC` [Bisacetyl derivative, Bisacetyl Derivative], the “AUC (area under the blood concentration-time curve) as compared with reduced coenzyme Q10, in words” value is on record as “lower”.
